For 25 compounds, IC50 results are on record in US9926281B2 (priority 2014, dated 2018).

The target in one assay is human ADAMTS-5 (Homo sapiens (Human), UniProt Q9UNA0). Conditions: read-out: hADAMTS-5 potency IC50.
For another assay, the target named is human TACE (Homo sapiens (Human), UniProt P78536). Particulars: read-out: TACE potency IC50.
The next assay deals with human MMP14 (Homo sapiens (Human), UniProt P50281). Conditions: read-out: hMMP-14 potency IC50.

Chain of human ADAMTS-5 (Q9UNA0 262-930): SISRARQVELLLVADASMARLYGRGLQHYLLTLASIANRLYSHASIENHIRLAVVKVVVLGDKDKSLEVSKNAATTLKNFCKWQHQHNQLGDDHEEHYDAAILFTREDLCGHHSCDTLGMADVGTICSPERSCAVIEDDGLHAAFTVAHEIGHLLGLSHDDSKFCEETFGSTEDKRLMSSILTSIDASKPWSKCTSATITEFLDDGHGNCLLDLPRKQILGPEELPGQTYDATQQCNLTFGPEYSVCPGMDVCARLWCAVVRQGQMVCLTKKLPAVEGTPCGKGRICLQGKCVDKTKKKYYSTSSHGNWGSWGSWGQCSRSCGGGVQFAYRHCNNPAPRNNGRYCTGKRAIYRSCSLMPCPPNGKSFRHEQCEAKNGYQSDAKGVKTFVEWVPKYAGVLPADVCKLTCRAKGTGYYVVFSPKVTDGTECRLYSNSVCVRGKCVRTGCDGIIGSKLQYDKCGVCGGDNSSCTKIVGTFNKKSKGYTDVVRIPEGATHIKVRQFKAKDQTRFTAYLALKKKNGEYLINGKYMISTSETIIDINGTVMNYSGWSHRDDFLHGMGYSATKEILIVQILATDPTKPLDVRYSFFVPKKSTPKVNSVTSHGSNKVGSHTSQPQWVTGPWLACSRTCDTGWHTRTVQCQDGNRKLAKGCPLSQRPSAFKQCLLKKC
Chain of human TACE (P78536 whole entry, looked up, change not shown): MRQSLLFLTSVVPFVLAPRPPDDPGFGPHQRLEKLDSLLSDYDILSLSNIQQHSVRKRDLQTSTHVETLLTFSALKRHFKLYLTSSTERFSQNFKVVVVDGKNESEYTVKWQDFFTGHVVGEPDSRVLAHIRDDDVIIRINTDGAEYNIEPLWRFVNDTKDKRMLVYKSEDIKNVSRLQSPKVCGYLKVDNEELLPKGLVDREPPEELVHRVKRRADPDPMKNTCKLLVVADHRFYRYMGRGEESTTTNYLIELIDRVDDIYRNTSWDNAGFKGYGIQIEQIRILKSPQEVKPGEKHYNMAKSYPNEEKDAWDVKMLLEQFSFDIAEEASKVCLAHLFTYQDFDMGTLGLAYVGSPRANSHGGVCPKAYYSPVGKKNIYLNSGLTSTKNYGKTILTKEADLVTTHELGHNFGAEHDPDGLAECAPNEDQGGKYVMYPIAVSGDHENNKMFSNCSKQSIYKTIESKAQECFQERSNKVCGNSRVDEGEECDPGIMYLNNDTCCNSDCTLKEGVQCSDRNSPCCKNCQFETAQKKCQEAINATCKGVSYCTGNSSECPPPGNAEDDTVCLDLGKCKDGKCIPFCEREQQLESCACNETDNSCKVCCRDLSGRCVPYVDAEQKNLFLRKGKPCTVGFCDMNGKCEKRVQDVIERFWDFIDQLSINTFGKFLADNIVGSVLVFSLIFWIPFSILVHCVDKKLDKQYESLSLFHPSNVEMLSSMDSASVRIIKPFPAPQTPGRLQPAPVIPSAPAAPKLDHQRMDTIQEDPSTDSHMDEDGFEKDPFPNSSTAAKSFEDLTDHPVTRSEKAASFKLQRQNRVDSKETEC
Procedure for human ADAMTS-5: Finally, the fluorescence is read on the Envision (Perkin Elmer) after an incubation of 90 min at 37° C.

Usually IC50 stands for the concentration that gives 50% inhibition. On to `C[C@H]1CN(C(=O)CCC2(c3ccncc3)NC(=O)NC2=O)CCN1c1ccc(F)c(Cl)c1` (stereo partly drawn) [compound 288, 5-[3-[(3S)-4-(3-chloro-4-fluoro-phenyl)-3-methyl-piperazin-1-yl]-3-oxo-propyl]-5-(4-pyridyl)imidazolidine-2,4-dione], for which the 50% inhibitory concentration (IC50) was 72 nM on human ADAMTS-5, above 4 µM on human TACE and above 4 µM on human MMP14.
Consider `Cc1cccc(C2(CCC(=O)N3CCN(c4cc(F)cc(Cl)c4)[C@@H](C)C3)NC(=O)NC2=O)n1` (stereo partly drawn) [compound 307, 5-[3-[(3S)-4-(3-chloro-5-fluoro-phenyl)-3-methyl-piperazin-1-yl]-3-oxo-propyl]-5-(6-methyl-2-pyridyl)imidazolidine-2,4-dione], for which the IC50 on human ADAMTS-5 is 44 nM; at human TACE it was 3.59 µM; on human MMP14 it was above 20 µM.
On the same counts, the results for `Cc1cccc(C2(CCC(=O)N3CCN(c4cccc(F)c4)[C@@H](C)C3)NC(=O)NC2=O)n1` (stereo partly drawn) [compound 308, 5-[3-[(3S)-4-(3-fluorophenyl)-3-methyl-piperazin-1-yl]-3-oxo-propyl]-5-(6-methyl-2-pyridyl)imidazolidine-2,4-dione] are 59 nM, above 4 µM and above 20 µM.
The matching figures for `Cc1cccc(C2(CCC(=O)N3CCN(c4cc(F)cc(F)c4)[C@@H](C)C3)NC(=O)NC2=O)n1` (stereo partly drawn) [compound 309, 5-[3-[(3S)-4-(3,5-difluorophenyl)-3-methyl-piperazin-1-yl]-3-oxo-propyl]-5-(6-methyl-2-pyridyl)imidazolidine-2,4-dione]: 31 nM, above 4 µM and above 20 µM.
On the same counts, the results for `CC(CC1(C2CC2)NC(=O)NC1=O)C(=O)N1CCN(c2cncc(F)c2)[C@@H](C)C1` (stereo partly drawn) [compound 313, 5-cyclopropyl-5-[3-[(3S)-4-(5-fluoro-3-pyridyl)-3-methyl-piperazin-1-yl]-2-methyl-3-oxo-propyl]imidazolidine-2,4-dione] are 34 nM, above 20 µM and above 20 µM.
Turning to `C[C@H]1CN(C(=O)CCC2(c3cccnc3)NC(=O)NC2=O)CCN1c1ccc(F)c(Cl)c1` (stereo partly drawn) [compound 316, 5-[3-[(3S)-4-(3-chloro-4-fluoro-phenyl)-3-methyl-piperazin-1-yl]-3-oxo-propyl]-5-(3-pyridyl)imidazolidine-2,4-dione], the values for the IC50 on human ADAMTS-5, at human TACE and at human MMP14 were 61 nM, above 4 µM and above 20 µM, respectively.
On the same counts, the results for `C[C@H]1CN(C(=O)CCC2(c3cccnc3)NC(=O)NC2=O)CCN1c1cc(F)cc(Cl)c1` (stereo partly drawn) [compound 317, 5-[3-[(3S)-4-(3-chloro-5-fluoro-phenyl)-3-methyl-piperazin-1-yl]-3-oxo-propyl]-5-(3-pyridyl)imidazolidine-2,4-dione] are 52 nM, above 4 µM and 0.823 µM.
Consider `C[C@H]1CN(C(=O)CCC2(c3cccnc3)NC(=O)NC2=O)CCN1c1cccc(F)c1` (stereo partly drawn) [compound 319, 5-[3-[(3S)-4-(3-fluorophenyl)-3-methyl-piperazin-1-yl]-3-oxo-propyl]-5-(3-pyridyl)imidazolidine-2,4-dione], for which the 50% inhibitory concentration (IC50) on human ADAMTS-5 was 94 nM; at human TACE it was above 4 µM; on human MMP14, above 4 µM.
For the compound `C[C@H]1CN(C(=O)CCC2(c3cccnc3)NC(=O)NC2=O)CCN1c1cc(F)cc(F)c1` (stereo partly drawn) [compound 320, 5-[3-[(3S)-4-(3,5-difluorophenyl)-3-methyl-piperazin-1-yl]-3-oxo-propyl]-5-(3-pyridyl)imidazolidine-2,4-dione], the results for the IC50 at human ADAMTS-5, at human TACE and at human MMP14 were 48 nM, above 4 µM and above 20 µM, respectively.
The matching figures for `C[C@H]1CN(C(=O)CCC2(c3cnccn3)NC(=O)NC2=O)CCN1c1cc(F)cc(Cl)c1` (stereo partly drawn) [compound 326, 5-[3-[(3S)-4-(3-chloro-5-fluoro-phenyl)-3-methyl-piperazin-1-yl]-3-oxo-propyl]-5-pyrazin-2-yl-imidazolidine-2,4-dione]: 52 nM, above 4 µM and above 4 µM.
The matching figures for `C[C@H]1CN(C(=O)CCC2(c3cnccn3)NC(=O)NC2=O)CCN1c1cc(F)cc(F)c1` (stereo partly drawn) [compound 327, 5-[3-[(3S)-4-(3,5-difluorophenyl)-3-methyl-piperazin-1-yl]-3-oxo-propyl]-5-pyrazin-2-yl-imidazolidine-2,4-dione]: 45 nM, above 4 µM and above 4 µM.
On the same counts, the results for `C[C@H]1CN(C(=O)CCC2(c3cncnc3)NC(=O)NC2=O)CCN1c1cc(F)cc(F)c1` (stereo partly drawn) [compound 332, 5-[3-[(3S)-4-(3,5-difluorophenyl)-3-methyl-piperazin-1-yl]-3-oxo-propyl]-5-pyrimidin-5-yl-imidazolidine-2,4-dione] are 61 nM, above 20 µM and 0.378 µM.
Regarding `C[C@@H](CC1(C2CC2)NC(=O)NC1=O)C(=O)N1CCN(c2cccc(-c3cn[nH]c3)c2)[C@@H](C)C1` (stereo partly drawn) [compound 339, 5-cyclopropyl-5-[(2S)-2-methyl-3-[(3S)-3-methyl-4-[3-(1H-pyrazol-4-yl)phenyl]piperazin-1-yl]-3-oxo-propyl]imidazolidine-2,4-dione], the IC50 on human ADAMTS-5 was 33 nM; on human TACE, above 4 µM; at human MMP14, 1.23 µM.
On the same counts, the results for `Cc1cncc(N2CCN(C(=O)C(C)CC3(C4CC4)NC(=O)NC3=O)C[C@@H]2C)c1` (stereo partly drawn) [compound 342, 5-cyclopropyl-5-[2-methyl-3-[(3S)-3-methyl-4-(5-methyl-3-pyridyl)piperazin-1-yl]-3-oxo-propyl]imidazolidine-2,4-dione] are 39 nM, above 4 µM and 2.6 µM.
On the same counts, the results for `C[C@H]1CN(C(=O)CCC2(c3ccccn3)NC(=O)NC2=O)CCN1c1cc(F)cc(Cl)c1` (stereo partly drawn) [compound 346, 5-[3-[(3S)-4-(3-chloro-5-fluoro-phenyl)-3-methyl-piperazin-1-yl]-3-oxo-propyl]-5-(2-pyridyl)imidazolidine-2,4-dione] are 37 nM, above 4 µM and above 4 µM.
The matching figures for `C[C@H]1CN(C(=O)CCC2(c3cnccn3)NC(=O)NC2=O)CCN1c1cccc(F)c1` (stereo partly drawn) [compound 350, 5-[3-[(3S)-4-(3-fluorophenyl)-3-methyl-piperazin-1-yl]-3-oxo-propyl]-5-pyrazin-2-yl-imidazolidine-2,4-dione]: 62 nM, above 20 µM and 1.31 µM.
As to `CC(CC1(C2CC2)NC(=O)NC1=O)C(=O)N1CCN(c2cccnc2)[C@@H](C)C1` (stereo partly drawn) [compound 351, 5-cyclopropyl-5-[2-methyl-3-[(3S)-3-methyl-4-(3-pyridyl)piperazin-1-yl]-3-oxo-propyl]imidazolidine-2,4-dione], the 50% inhibitory concentration (IC50) on human ADAMTS-5 was 35 nM; at human TACE it was above 20 µM; at human MMP14, 3.84 µM.
On the same counts, the results for `C[C@H]1CN(C(=O)CC[C@@]2(C3CC3)NC(=O)NC2=O)CCN1c1cc(F)cc(-c2cn[nH]c2)c1` [compound 357, (5S)-5-cyclopropyl-5-[3-[(3S)-4-[3-fluoro-5-(1H-pyrazol-4-yl)phenyl]-3-methyl-piperazin-1-yl]-3-oxo-propyl]imidazolidine-2,4-dione] are 25 nM, above 4 µM and above 20 µM.
The matching figures for `CCC1(C[C@H](C)C(=O)N2CCN(c3cncc(Cl)c3)[C@@H](C)C2)NC(=O)NC1=O` (stereo partly drawn) [compound 359, 5-[(2S)-3-[4-(5-chloro-3-pyridyl)-3-methyl-piperazin-1-yl]-2-methyl-3-oxo-propyl]-5-ethyl-imidazolidine-2,4-dione]: 83 nM, above 12 µM and 0.978 µM.
With `CC(CC1(C)NC(=O)NC1=O)C(=O)N1CCN(c2ccc(F)cc2)[C@@H](C)C1` (stereo partly drawn) [compound 365, 5-[3-[(3S)-4-(4-fluorophenyl)-3-methyl-piperazin-1-yl]-2-methyl-3-oxo-propyl]-5-methyl-imidazolidine-2,4-dione], the 50% inhibitory concentration (IC50) was 72 nM on human ADAMTS-5, above 9.33 µM on human TACE and above 20 µM at human MMP14.
The matching figures for `Cc1cc(C2(CCC(=O)N3CCN(c4cc(F)cc(F)c4)[C@@H](C)C3)NC(=O)NC2=O)ccn1` (stereo partly drawn) [compound 367, 5-[3-[(3S)-4-(3,5-difluorophenyl)-3-methyl-piperazin-1-yl]-3-oxo-propyl]-5-(2-methyl-4-pyridyl)imidazolidine-2,4-dione]: 44 nM, above 4 µM and above 20 µM.
On the same counts, the results for `CC(CC1(C)NC(=O)NC1=O)C(=O)N1CCN(c2cccc(-c3cn[nH]c3)c2)[C@@H](C)C1` (stereo partly drawn) [compound 371] are 42 nM, above 3.73 µM and 0.682 µM.
For `C[C@@H](C[C@@]1(C)NC(=O)NC1=O)C(=O)N1CCN(c2cc(F)cc(-c3cn[nH]c3)c2)[C@@H](C)C1` [compound 375, 5-[3-[(3S)-4-[3-fluoro-5-(1H-pyrazol-4-yl)phenyl]-3-methyl-piperazin-1-yl]-2-methyl-3-oxo-propyl]-5-methyl-imidazolidine-2,4-dione], the IC50 was 30 nM at human ADAMTS-5, 1.13 µM on human TACE and above 20 µM on human MMP14.
As to `C[C@H]1CN(C(=O)CCC2(c3cn(C)cn3)NC(=O)NC2=O)CCN1c1cc(F)cc(Cl)c1` (stereo partly drawn) [compound 389, 5-[3-[(3S)-4-(3-chloro-5-fluoro-phenyl)-3-methyl-piperazin-1-yl]-3-oxo-propyl]-5-(1-methylimidazol-4-yl)imidazolidine-2,4-dione], the IC50 is 40 nM on human ADAMTS-5, above 4 µM at human TACE and above 20 µM at human MMP14.
On the same counts, the results for `Cc1nc(C2(CCC(=O)N3CCN(c4cc(F)cc(F)c4)[C@@H](C)C3)NC(=O)NC2=O)c(C)o1` (stereo partly drawn) [compound 396, 5-[3-[(3S)-4-(3,5-difluorophenyl)-3-methyl-piperazin-1-yl]-3-oxo-propyl]-5-(2,5-dimethyloxazol-4-yl)imidazolidine-2,4-dione] are 53 nM, above 4 µM and 0.007 µM.
